# Results as given in the supplement of paper PMC10627819.
# Assays:
# [1] = test system: S. aureus Newman; assay: fitness (endpoint OD595 vs no drug) (fraction); higher = more growth; settings: one replicate
# Procedure, shortened: (§1)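 Fitness compares growth at the stationary-phase transition with the robust mean of no-drug control wells, as a ratio of optical densities. The ratio is capped at 1. Wells of 384-well plates held 30 µl, or 55 µl for S. pneumoniae, inoculated at OD595 0.01. Readings at OD595 every 30 min for 14 h at 37 °C were corrected against the first reading.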
# [2] = test system: S. aureus Newman; assay: Bliss interaction score (quartile over a dose matrix) (fitness difference); higher = more antagonism (negative = synergy)
# Procedure, shortened: (§2)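 Fitness was derived from optical density at entry into stationary phase, divided by the robust mean of the no-drug wells on the same plate. That reading was taken as OD595, and the ratio was capped at 1. Single-drug fitness was inferred from the combination data. The Bliss score, observed fitness minus the expected product of single-drug fitness, was summarised as quartiles over technical, biological and donor/recipient replicates.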
# [3] = test system: B. subtilis 168; assay: as above
# Procedure, shortened: as §2
# [4] = test system: S. pneumoniae D39V; assay: as above
# Procedure, shortened: as §2
# [5] = test system: S. aureus DSM 20231; assay: as above
# Procedure, shortened: as §2
# [6] = test system: B. subtilis 168; assay: fitness (endpoint OD595 vs no drug) (fraction); higher = more growth
# Procedure, shortened: as §1
# [7] = test system: S. pneumoniae D39V; assay: as above
# Procedure, shortened: as §1
# 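Wherever Bliss interaction score (quartile over a dose matrix) is given: first quartile when negative (synergy) and third quartile when positive (antagonism).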
structure (smiles),measurement,setting,value
CO/N=C(\C(=O)N[C@@H]1C(=O)N2C(C(=O)O)=C(COC(N)=O)CS[C@H]12)c1ccco1 [Cefuroxime] + CN[C@H](CC(C)C)C(=O)N[C@H]1C(=O)N[C@@H](CC(N)=O)C(=O)N[C@H]2C(=O)N[C@H]3C(=O)N[C@H](C(=O)N[C@H](C(=O)O)c4cc(O)cc(O)c4-c4cc3ccc4O)[C@H](O)c3ccc(c(Cl)c3)Oc3cc2cc(c3O[C@@H]2O[C@H](CO)[C@@H](O)[C@H](O)[C@H]2O[C@H]2C[C@](C)(N)[C@H](O)[C@H](C)O2)Oc2ccc(cc2Cl)[C@H]1O [Vancomycin],fitness,"[1]; first compound 0.04875 µg/mL, partner 0.1875 µg/mL",0.934
same,fitness,"[1]; first compound 0.04875 µg/mL, partner 0.375 µg/mL",0.93
same,fitness,"[1]; first compound 0.04875 µg/mL, partner 0.75 µg/mL",0.975
same,fitness,"[1]; first compound 0.0975 µg/mL, partner 0.1875 µg/mL",0.974
same,fitness,"[1]; first compound 0.0975 µg/mL, partner 0.375 µg/mL",0.995
same,fitness,"[1]; first compound 0.0975 µg/mL, partner 0.75 µg/mL",0.988
same,fitness,"[1]; first compound 0.195 µg/mL, partner 0.1875 µg/mL",0.943
same,fitness,"[1]; first compound 0.195 µg/mL, partner 0.375 µg/mL",0.925
same,fitness,"[1]; first compound 0.195 µg/mL, partner 0.75 µg/mL",0.926
same,Bliss interaction score,[2],0.0418
same,Bliss interaction score,[3],-0.0941
same,Bliss interaction score,[4],-0.0597
same,Bliss interaction score,[5],0.14
Cc1ncc([N+](=O)[O-])n1CCO [Metronidazole] + CCC(C)C1C(=O)NC(=C)C(=O)NC(C(=O)NC(CSCC(C(=O)N1)NC(=O)/C(=C/C)/NC(=O)C(C(C)CC)N)C(=O)NC2C(SCC(NC(=O)CNC(=O)C3CCCN3C2=O)C(=O)NC(CCCCN)C(=O)NC4C(SCC(NC(=O)CNC(=O)C(NC(=O)C(NC(=O)C(NC(=O)CNC4=O)C)CC(C)C)CCSC)C(=O)NC(CC(=O)N)C(=O)NC(CCSC)C(=O)NC(CCCCN)C(=O)NC5C(SCC6C(=O)NC(C(=O)NC(CSC(C(C(=O)N6)NC(=O)C(NC5=O)C)C)C(=O)NC(CO)C(=O)NC(C(C)CC)C(=O)NC(CC7=CN=CN7)C(=O)NC(C(C)C)C(=O)NC(=C)C(=O)NC(CCCCN)C(=O)O)CC8=CN=CN8)C)C)C)CC(C)C [Nisin],fitness,"[6]; first compound 0.625 µg/mL, partner 0.5 µg/mL, one replicate, main component drawn",0.831
same,fitness,"[6]; first compound 0.625 µg/mL, partner 1 µg/mL, one replicate, main component drawn",0.838
same,fitness,"[6]; first compound 0.625 µg/mL, partner 1.25 µg/mL, one replicate, main component drawn",0.909
same,fitness,"[6]; first compound 0.625 µg/mL, partner 1.6 µg/mL, one replicate, main component drawn",0.796
same,fitness,"[6]; first compound 0.625 µg/mL, partner 2 µg/mL, one replicate, main component drawn",0.571
same,fitness,"[6]; first compound 0.625 µg/mL, partner 2.5 µg/mL, one replicate, main component drawn",0.366
same,fitness,"[6]; first compound 0.625 µg/mL, partner 3.2 µg/mL, one replicate, main component drawn",0.0225
same,fitness,"[6]; first compound 0.625 µg/mL, partner 4 µg/mL, one replicate, main component drawn",0.61
same,fitness,"[6]; first compound 0.625 µg/mL, partner 5 µg/mL, one replicate, main component drawn",0.0544
same,fitness,"[6]; first compound 0.625 µg/mL, partner 6.4 µg/mL, one replicate, main component drawn",0.0311
same,fitness,"[6]; first compound 0.625 µg/mL, partner 8 µg/mL, one replicate, main component drawn",0.0261
same,fitness,"[6]; first compound 0.625 µg/mL, partner 16 µg/mL, one replicate, main component drawn",0.0228
same,fitness,"[6]; first compound 1.25 µg/mL, partner 0.5 µg/mL, one replicate, main component drawn",0.806
same,fitness,"[6]; first compound 1.25 µg/mL, partner 1 µg/mL, one replicate, main component drawn",0.797
same,fitness,"[6]; first compound 1.25 µg/mL, partner 1.25 µg/mL, one replicate, main component drawn",0.939
same,fitness,"[6]; first compound 1.25 µg/mL, partner 1.6 µg/mL, one replicate, main component drawn",0.809
same,fitness,"[6]; first compound 1.25 µg/mL, partner 2 µg/mL, one replicate, main component drawn",0.528
same,fitness,"[6]; first compound 1.25 µg/mL, partner 2.5 µg/mL, one replicate, main component drawn",0.666
same,fitness,"[6]; first compound 1.25 µg/mL, partner 3.2 µg/mL, one replicate, main component drawn",0.03
same,fitness,"[6]; first compound 1.25 µg/mL, partner 4 µg/mL, one replicate, main component drawn",0.534
same,fitness,"[6]; first compound 1.25 µg/mL, partner 5 µg/mL, one replicate, main component drawn",0.0891
same,fitness,"[6]; first compound 1.25 µg/mL, partner 6.4 µg/mL, one replicate, main component drawn",0.0509
same,fitness,"[6]; first compound 1.25 µg/mL, partner 8 µg/mL, one replicate, main component drawn",0.0271
same,fitness,"[6]; first compound 1.25 µg/mL, partner 16 µg/mL, one replicate, main component drawn",0.0235
same,fitness,"[6]; first compound 2.5 µg/mL, partner 0.5 µg/mL, one replicate, main component drawn",0.795
same,fitness,"[6]; first compound 2.5 µg/mL, partner 1 µg/mL, one replicate, main component drawn",0.803
same,fitness,"[6]; first compound 2.5 µg/mL, partner 1.25 µg/mL, one replicate, main component drawn",0.91
same,fitness,"[6]; first compound 2.5 µg/mL, partner 1.6 µg/mL, one replicate, main component drawn",0.755
same,fitness,"[6]; first compound 2.5 µg/mL, partner 2 µg/mL, one replicate, main component drawn",0.537
same,fitness,"[6]; first compound 2.5 µg/mL, partner 2.5 µg/mL, one replicate, main component drawn",0.616
same,fitness,"[6]; first compound 2.5 µg/mL, partner 3.2 µg/mL, one replicate, main component drawn",0.0513
same,fitness,"[6]; first compound 2.5 µg/mL, partner 4 µg/mL, one replicate, main component drawn",0.333
same,fitness,"[6]; first compound 2.5 µg/mL, partner 5 µg/mL, one replicate, main component drawn",0.149
same,fitness,"[6]; first compound 2.5 µg/mL, partner 6.4 µg/mL, one replicate, main component drawn",0.0479
same,fitness,"[6]; first compound 2.5 µg/mL, partner 8 µg/mL, one replicate, main component drawn",0.0234
same,fitness,"[6]; first compound 2.5 µg/mL, partner 16 µg/mL, one replicate, main component drawn",0.015
same,fitness,"[7]; first compound 1.073 µg/mL, partner 3.2 µg/mL, main component drawn",0.0352
same,fitness,"[7]; first compound 1.073 µg/mL, partner 6.4 µg/mL, main component drawn",0.0007
same,fitness,"[7]; first compound 1.25 µg/mL, partner 0.4275 µg/mL, main component drawn",≥ 1
same,fitness,"[7]; first compound 1.25 µg/mL, partner 0.855 µg/mL, main component drawn",≥ 1
same,fitness,"[7]; first compound 1.25 µg/mL, partner 1.71 µg/mL, main component drawn",0.127
same,fitness,"[7]; first compound 2.145 µg/mL, partner 1.6 µg/mL, main component drawn",0.809
same,fitness,"[7]; first compound 2.145 µg/mL, partner 3.2 µg/mL, main component drawn",0.0201
same,fitness,"[7]; first compound 2.145 µg/mL, partner 6.4 µg/mL, main component drawn",0
same,fitness,"[7]; first compound 2.5 µg/mL, partner 0.4275 µg/mL, main component drawn",≥ 1
same,fitness,"[7]; first compound 2.5 µg/mL, partner 0.855 µg/mL, main component drawn",≥ 1
same,fitness,"[7]; first compound 2.5 µg/mL, partner 1.71 µg/mL, main component drawn",0.121
same,fitness,"[7]; first compound 4.29 µg/mL, partner 1.6 µg/mL, main component drawn",0.747
same,fitness,"[7]; first compound 4.29 µg/mL, partner 3.2 µg/mL, main component drawn",0.0174
same,fitness,"[7]; first compound 4.29 µg/mL, partner 6.4 µg/mL, main component drawn",0
same,fitness,"[7]; first compound 5 µg/mL, partner 0.4275 µg/mL, main component drawn",0.968
same,fitness,"[7]; first compound 5 µg/mL, partner 0.855 µg/mL, main component drawn",≥ 1
same,fitness,"[7]; first compound 5 µg/mL, partner 1.71 µg/mL, main component drawn",0.1
same,Bliss interaction score,[2]; main component drawn,0.0893
same,Bliss interaction score,[3]; main component drawn,0.0914
same,Bliss interaction score,[4]; main component drawn,0.0647
same,Bliss interaction score,[5]; main component drawn,0.153
C[C@H]1c2cccc(O)c2C(=O)C2=C(O)[C@]3(O)C(=O)C(C(N)=O)=C(O)[C@@H](N(C)C)[C@@H]3[C@@H](O)[C@@H]21 [Doxycycline] + Cc1ncc([N+](=O)[O-])n1CCO [Metronidazole],fitness,"[6]; first compound 0.02 µg/mL, partner 0.625 µg/mL",0.914
same,fitness,"[6]; first compound 0.02 µg/mL, partner 1.25 µg/mL",0.899
same,fitness,"[6]; first compound 0.02 µg/mL, partner 2.5 µg/mL",0.933
same,fitness,"[6]; first compound 0.04 µg/mL, partner 0.625 µg/mL",0.774
same,fitness,"[6]; first compound 0.04 µg/mL, partner 1.25 µg/mL",0.835
same,fitness,"[6]; first compound 0.04 µg/mL, partner 2.5 µg/mL",0.844
same,fitness,"[6]; first compound 0.08 µg/mL, partner 0.625 µg/mL",0.701
same,fitness,"[6]; first compound 0.08 µg/mL, partner 1.25 µg/mL",0.682
same,fitness,"[6]; first compound 0.08 µg/mL, partner 2.5 µg/mL",0.61
same,fitness,"[7]; first compound 0.003875 µg/mL, partner 1.25 µg/mL, one replicate",≥ 1
same,fitness,"[7]; first compound 0.003875 µg/mL, partner 2.5 µg/mL, one replicate",≥ 1
same,fitness,"[7]; first compound 0.003875 µg/mL, partner 5 µg/mL, one replicate",≥ 1
same,fitness,"[7]; first compound 0.00775 µg/mL, partner 1.25 µg/mL, one replicate",≥ 1
same,fitness,"[7]; first compound 0.00775 µg/mL, partner 2.5 µg/mL, one replicate",≥ 1
same,fitness,"[7]; first compound 0.00775 µg/mL, partner 5 µg/mL, one replicate",≥ 1
same,fitness,"[7]; first compound 0.0155 µg/mL, partner 1.073 µg/mL",0.873
same,fitness,"[7]; first compound 0.0155 µg/mL, partner 1.25 µg/mL",0.994
same,fitness,"[7]; first compound 0.0155 µg/mL, partner 2.145 µg/mL",0.851
same,fitness,"[7]; first compound 0.0155 µg/mL, partner 2.5 µg/mL",≥ 1
same,fitness,"[7]; first compound 0.0155 µg/mL, partner 4.29 µg/mL",0.809
same,fitness,"[7]; first compound 0.0155 µg/mL, partner 5 µg/mL",0.968
same,fitness,"[7]; first compound 0.031 µg/mL, partner 1.073 µg/mL",0.889
same,fitness,"[7]; first compound 0.031 µg/mL, partner 1.25 µg/mL, one replicate",0.938
same,fitness,"[7]; first compound 0.031 µg/mL, partner 2.145 µg/mL",0.853
same,fitness,"[7]; first compound 0.031 µg/mL, partner 2.5 µg/mL, one replicate",0.91
same,fitness,"[7]; first compound 0.031 µg/mL, partner 4.29 µg/mL",0.835
same,fitness,"[7]; first compound 0.031 µg/mL, partner 5 µg/mL, one replicate",0.892
same,fitness,"[7]; first compound 0.062 µg/mL, partner 1.073 µg/mL",0.838
same,fitness,"[7]; first compound 0.062 µg/mL, partner 1.25 µg/mL, one replicate",0.775
same,fitness,"[7]; first compound 0.062 µg/mL, partner 2.145 µg/mL",0.865
same,fitness,"[7]; first compound 0.062 µg/mL, partner 2.5 µg/mL, one replicate",0.794
same,fitness,"[7]; first compound 0.062 µg/mL, partner 4.29 µg/mL",0.829
same,fitness,"[7]; first compound 0.062 µg/mL, partner 5 µg/mL, one replicate",0.757
same,Bliss interaction score,[2],0.0262
same,Bliss interaction score,[3],0.0635
same,Bliss interaction score,[4],0.0539
same,Bliss interaction score,[5],0.0684
